Test results reported in patent publication US9296741B2, “Bromodomain inhibitors” (priority 2012, dated 2016).

Experiments:
[1] = molecular target: human BRD4 second bromodomain (BDII_E352-M457) (Homo sapiens (Human), UniProt O60885); assay: TR-FRET bromodomain binding assay, BRD4 second bromodomain
[2] = Human liver microsome stability assay; format: in vitro ADME; conditions: both sexes, human, microsomes, pH 7.4
[3] = tested on: breast cancer cell line MX-1; assay: MX-1 cell line proliferation assay; format: cell-based, human; conditions: Homo sapiens, MX1, 72 h; MX-1 cells, 3-day proliferation, Cell Titer Glo; read-out: Cellular proliferation: EC50
[4] = Mouse liver microsome stability assay; format: in vitro ADME; conditions: male, CD1, mouse, microsomes, pH 7.4
[5] = Rat liver microsome stability assay; format: in vitro ADME; conditions: rat liver microsomes (male Sprague-Dawley), 0.5 μM test compound, pH 7.4, 37° C.; for half-life at 0.5 μM: 0.25 mg/mL microsomal protein, read-out: Stability in rat liver microsomes (t1/2 in minutes); for Stability in rat liver microsomes (t1/2 in minutes): […] microsomal protein
[6] = molecular target: human BRD4 first bromodomain (BDI_K57-E168) (Homo sapiens (Human), UniProt O60885); assay: TR-FRET bromodomain binding assay, BRD4 first bromodomain

| SMILES | Ki [1] | half-life at 0.5 μM [2] | EC50 [3] | half-life at 0.5 μM [4] | half-life at 0.5 μM [5] | Ki [6] | Stability in rat liver microsomes (t1/2 in minutes) [5] |
| --- | --- | --- | --- | --- | --- | --- | --- |
| Cn1cc(-c2cc(C(N)=O)ccc2Oc2ccc(F)cc2F)c2cc[nH]c2c1=O [Example 50, 4-(2,4-difluorophenoxy)-3-(6-methyl-7-oxo-6,7-dihydro-1H-pyrrolo[2,3-c]pyridin-4-yl)benzamide] | 8.1 nM | 35 min | 206 nM | 46 min | 88 min | 21.5 nM |  |
| Cn1cc(-c2cc(C(=O)NC3CCOC3)ccc2Oc2ccc(F)cc2F)c2cc[nH]c2c1=O (stereo not drawn) [Example 51, 4-(2,4-difluorophenoxy)-3-(6-methyl-7-oxo-6,7-dihydro-1H-pyrrolo[2,3-c]pyridin-4-yl)-N-(tetrahydrofuran-3-yl)benzamide] | 16.1 nM | 6 min | 101 nM | > 120 min | 63 min | 9.7 nM |  |
| Cn1cc(-c2cc(C(=O)N3CCC(NC(=O)OC(C)(C)C)C3)ccc2Oc2ccc(F)cc2F)c2cc[nH]c2c1=O (stereo not drawn) [Example 54, tert-butyl {1-[4-(2,4-difluorophenoxy)-3-(6-methyl-7-oxo-6,7-dihydro-1H-pyrrolo[2,3-c]pyridin-4-yl)benzoyl]pyrrolidin-3-yl}carbamate] | 37.5 nM | 3 min | 266 nM | 2 min | 30 min | 95.1 nM |  |
| Cn1cc(-c2cc(NS(C)(=O)=O)ccc2OC2CCCCC2)c2cc[nH]c2c1=O [Example 57, N-[4-(cyclohexyloxy)-3-(6-methyl-7-oxo-6,7-dihydro-1H-pyrrolo[2,3-c]pyridin-4-yl)phenyl]methanesulfonamide] | 2 nM | 13 min | 13.8 nM | 5 min | 6 min | 0.88 nM |  |
| Cn1cc(-c2cc(NS(C)(=O)=O)ccc2OC2CCCC2)c2cc[nH]c2c1=O [Example 58, N-[4-(cyclopentyloxy)-3-(6-methyl-7-oxo-6,7-dihydro-1H-pyrrolo[2,3-c]pyridin-4-yl)phenyl]methanesulfonamide] | 8.1 nM | > 120 min | 45.1 nM | 4 min |  | 2.1 nM | 1 min |
| Cn1cc(-c2cc(NS(C)(=O)=O)ccc2OC2CCCOC2)c2cc[nH]c2c1=O (stereo not drawn) [Example 60, N-[3-(6-methyl-7-oxo-6,7-dihydro-1H-pyrrolo[2,3-c]pyridin-4-yl)-4-(tetrahydro-2H-pyran-3-yloxy)phenyl]methanesulfonamide] | 6.6 nM | 68 min | 14.2 nM | 34 min | 64 min | 0.75 nM |  |
| Cn1cc(-c2cc(NS(C)(=O)=O)ccc2OCc2ccccc2)c2cc[nH]c2c1=O [Example 63, N-[4-(benzyloxy)-3-(6-methyl-7-oxo-6,7-dihydro-1H-pyrrolo[2,3-c]pyridin-4-yl)phenyl]methanesulfonamide] | 42.7 nM | 39 min | 105 nM | 18 min | 13 min | 18 nM |  |
| COC(=O)c1cc2c(-c3ccccc3Oc3ccccc3)cn(C)c(=O)c2[nH]1 [Example 67, methyl 6-methyl-7-oxo-4-(2-phenoxyphenyl)-6,7-dihydro-1H-pyrrolo[2,3-c]pyridine-2-carboxylate] | 93.8 nM | 6 min | 341 nM | 6 min | 5 min | 56.1 nM |  |
| CCOC(=O)c1cc2c(-c3cc(N)ccc3Oc3ccccc3)cn(C)c(=O)c2[nH]1 [Example 69, ethyl 4-(5-amino-2-phenoxyphenyl)-6-methyl-7-oxo-6,7-dihydro-1H-pyrrolo[2,3-c]pyridine-2-carboxylate] | 12.3 nM | 6 min | 140 nM | 3 min | 2 min | 39 nM |  |
| Cn1cc(-c2cc(NS(C)(=O)=O)ccc2Oc2ccccc2)c2cc(C(=O)O)[nH]c2c1=O [Example 70, 6-methyl-4-{5-[(methylsulfonyl)amino]-2-phenoxyphenyl}-7-oxo-6,7-dihydro-1H-pyrrolo[2,3-c]pyridine-2-carboxylic acid] | 46.8 nM | 41 min | > 3000 nM | 68 min | 9 min | 11.8 nM |  |
| CCOC(=O)c1cc2c(-c3cc(NS(C)(=O)=O)ccc3Oc3ccccc3)cn(C)c(=O)c2[nH]1 [Example 71, ethyl 6-methyl-4-{5-[(methylsulfonyl)amino]-2-phenoxyphenyl}-7-oxo-6,7-dihydro-1H-pyrrolo[2,3-c]pyridine-2-carboxylate] | 1.2 nM | 2 min | 17.5 nM | 6 min |  | 0.81 nM | 1 min |
| CCNC(=O)c1cc2c(-c3cc(NS(C)(=O)=O)ccc3Oc3ccccc3)cn(C)c(=O)c2[nH]1 [Example 72, N-ethyl-6-methyl-4-{5-[(methylsulfonyl)amino]-2-phenoxyphenyl}-7-oxo-6,7-dihydro-1H-pyrrolo[2,3-c]pyridine-2-carboxamide] | 1.1 nM | 34 min | 45.7 nM | 70 min |  | 1.5 nM | 1 min |
| Cn1cc(-c2cc(NS(C)(=O)=O)ccc2Oc2ccccc2)c2cc(C(N)=O)[nH]c2c1=O [Example 73, 6-methyl-4-{5-[(methylsulfonyl)amino]-2-phenoxyphenyl}-7-oxo-6,7-dihydro-1H-pyrrolo[2,3-c]pyridine-2-carboxamide] | 0.5 nM | 36 min | 20.7 nM | 31 min | 2 min | 0.98 nM |  |
| Cn1nc(-c2ccccc2Oc2ccccc2)c2cc[nH]c2c1=O [Example 82, 6-methyl-4-(2-phenoxyphenyl)-1,6-dihydro-7H-pyrrolo[2,3-d]pyridazin-7-one] | 183 nM | 19 min | 767 nM | 2 min | 2 min | 519 nM |  |
| Cn1cc(-c2cc(NS(=O)(=O)CCF)ccc2OC2CCOC2)c2cc[nH]c2c1=O (stereo not drawn) [Example 91, 2-fluoro-N-[3-(6-methyl-7-oxo-6,7-dihydro-1H-pyrrolo[2,3-c]pyridin-4-yl)-4-(tetrahydrofuran-3-yloxy)phenyl]ethanesulfonamide] | 87.4 nM | 17 min | 240 nM | 7 min | 7 min | 12.2 nM |  |
| CCCS(=O)(=O)Nc1ccc(Oc2ccc(C#N)cc2)c(-c2cn(C)c(=O)c3[nH]ccc23)c1 [Example 93, N-[4-(4-cyanophenoxy)-3-(6-methyl-7-oxo-6,7-dihydro-1H-pyrrolo[2,3-c]pyridin-4-yl)phenyl]propane-1-sulfonamide] | 32.2 nM | 54 min | 120 nM | 25 min | 102 min | 7.6 nM |  |
| CCCS(=O)(=O)Nc1ccc(Oc2c(F)cc(F)cc2F)c(-c2cn(C)c(=O)c3[nH]ccc23)c1 [Example 94, N-[3-(6-methyl-7-oxo-6,7-dihydro-1H-pyrrolo[2,3-c]pyridin-4-yl)-4-(2,4,6-trifluorophenoxy)phenyl]propane-1-sulfonamide] | 10 nM | 47 min | 110 nM | 25 min | 28 min | 16.2 nM |  |
| Cn1cc(-c2cc(S(N)(=O)=O)ccc2Oc2ccccc2)c2cc[nH]c2c1=O [Example 95, 3-(6-methyl-7-oxo-6,7-dihydro-1H-pyrrolo[2,3-c]pyridin-4-yl)-4-phenoxybenzenesulfonamide] | 1.1 nM | > 120 min | 56 nM | 36 min | 7 min | 8.7 nM |  |
| Cn1cc(-c2cc(S(N)(=O)=O)cnc2NC2CCCCC2)c2cc[nH]c2c1=O [Example 96, 6-(cyclohexylamino)-5-(6-methyl-7-oxo-6,7-dihydro-1H-pyrrolo[2,3-c]pyridin-4-yl)pyridine-3-sulfonamide] | 1.1 nM | 24 min | 16 nM | 33 min | 13 min | 0.63 nM |  |
| CNS(=O)(=O)Nc1ccc(Oc2c(F)cc(F)cc2F)c(-c2cn(C)c(=O)c3[nH]ccc23)c1 [Example 98, N-methyl-N′-[3-(6-methyl-7-oxo-6,7-dihydro-1H-pyrrolo[2,3-c]pyridin-4-yl)-4-(2,4,6-trifluorophenoxy)phenyl]sulfuric diamide] | 2.7 nM | 26 min | 52.9 nM | 10 min | 33 min | 6.5 nM |  |
| CCCS(=O)(=O)Nc1ccc(OC2CCOCC2)c(-c2cn(C)c(=O)c3[nH]ccc23)c1 [Example 99, N-[3-(6-methyl-7-oxo-6,7-dihydro-1H-pyrrolo[2,3-c]pyridin-4-yl)-4-(tetrahydro-2H-pyran-4-yloxy)phenyl]propane-1-sulfonamide] | 24.7 nM | > 120 min | 97.7 nM | 35 min | 22 min | 3.5 nM |  |
